# Reference: ChEMBL document CHEMBL1201862, “PubChem BioAssay data set” (2004)
#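 Briefly, cells in 96-well plates were exposed to five compound concentrations for 48 h, and endpoints were estimated by linear interpolation. GI50 = concentration required for 50% inhibition of growth.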 Calls of active or inactive are those of the source. No stated cut-off is given here; in the data, active = GI50 up to about 1.1 µM and inactive = higher.
# Columns and labels:
# Test in all cases: NCI-60 cell line screen, 48 h
# [1] = tested on: 786-0
# [2] = tested on: A498
# [3] = tested on: ACHN
# [4] = tested on: CAKI-1
# [5] = tested on: COLO 205
# [6] = tested on: DU-145
# [7] = tested on: IGROV-1
# [8] = tested on: MCF7
# [9] = tested on: MDA-N
# [10] = tested on: NCI-H23
# [11] = tested on: NCI-H460
# [12] = tested on: NCI-H522
# [13] = tested on: OVCAR-8
# [14] = tested on: PC-3
# [15] = tested on: RPMI-8226
# [16] = tested on: RXF 393
# [17] = tested on: SK-MEL-2
# [18] = tested on: SK-MEL-5
# [19] = tested on: SR
# [20] = tested on: T47D
Compound,GI50 [1],GI50 [2],GI50 [3],GI50 [4],GI50 [5],GI50 [6],GI50 [7],GI50 [8],GI50 [9],GI50 [10],GI50 [11],GI50 [12],GI50 [13],GI50 [14],GI50 [15],GI50 [16],GI50 [17],GI50 [18],GI50 [19],GI50 [20]
O=[N+]([O-])c1cccc2nc3ccccc3c(NCCCn3ccnc3[N+](=O)[O-])c12,0.000175 µM (active),0.000227 µM (active),0.000161 µM (active),0.000385 µM (active),0.000109 µM (active),< 0.0001 µM (active),0.00389 µM (active),< 0.0001 µM (active),< 0.0001 µM (active),0.0003 µM (active),< 0.0001 µM (active),0.00046 µM (active),0.000111 µM (active),0.000598 µM (active),< 0.0001 µM (active),0.000139 µM (active),0.000235 µM (active),< 0.0001 µM (active),0.02 µM (active),0.0407 µM (active)
CN(C)Cc1cc(C(C)(C)C)cc(CN(C)C)c1O,60.1 µM (inactive),> 100 µM (inactive),65.3 µM (inactive),> 100 µM (inactive),35.8 µM (inactive),83.8 µM (inactive),> 100 µM (inactive),96.2 µM (inactive),> 100 µM (inactive),> 100 µM (inactive),36.4 µM (inactive),43.5 µM (inactive),98.4 µM (inactive),77.8 µM (inactive),> 100 µM (inactive),> 100 µM (inactive),> 100 µM (inactive),> 100 µM (inactive),54.8 µM (inactive),> 100 µM (inactive)
O=C(/C=C/c1ccco1)CC(=O)/C=C/c1ccco1,12.7 µM (inactive),20.9 µM (inactive),14.8 µM (inactive),14.7 µM (inactive),> 10 µM (inactive),> 10 µM (inactive),16.8 µM (inactive),8.32 µM (inactive),8.04 µM (inactive),12.2 µM (inactive),14.4 µM (inactive),7.31 µM (inactive),17.7 µM (inactive),> 10 µM (inactive),8.38 µM (inactive),4.58 µM (inactive),14.3 µM (inactive),12.3 µM (inactive),4.66 µM (inactive),8.67 µM (inactive)
CC(=O)N(C)C(C(=O)N1CC(C)CC1C(=O)N(C)C1C(=O)NC(CC(C)C)C(=O)N2CC(C)CC2C(=O)NC(CC(C)C)C(=O)N(C)C(C(C)C)C(=O)N2CCCC2C(=O)N(C)C(CC(C)C)C(=O)NCC(=O)OC1C)C(C)C (stereo not given),> 100 µM (inactive),> 100 µM (inactive),> 100 µM (inactive),> 100 µM (inactive),> 100 µM (inactive),> 100 µM (inactive),72.1 µM (inactive),> 100 µM (inactive),> 100 µM (inactive),> 100 µM (inactive),> 100 µM (inactive),> 100 µM (inactive),> 100 µM (inactive),> 100 µM (inactive),> 100 µM (inactive),> 100 µM (inactive),> 100 µM (inactive),> 100 µM (inactive),> 100 µM (inactive),> 100 µM (inactive)
CCOC(=O)N(Cc1cccs1)c1cc(OC)c(OC)c(OC)c1,> 100 µM (inactive),> 100 µM (inactive),> 100 µM (inactive),56.5 µM (inactive),7.18 µM (inactive),> 100 µM (inactive),17 µM (inactive),58.2 µM (inactive),28.9 µM (inactive),> 100 µM (inactive),51.1 µM (inactive),32.6 µM (inactive),90.4 µM (inactive),33.1 µM (inactive),25.8 µM (inactive),83 µM (inactive),26.5 µM (inactive),41.7 µM (inactive),21.3 µM (inactive),54.1 µM (inactive)
O=C(Nc1ccc(-c2cn3ccccc3n2)cc1)c1cc(Br)ccc1O,> 100 µM (inactive),> 100 µM (inactive),> 100 µM (inactive),> 100 µM (inactive),> 100 µM (inactive),> 100 µM (inactive),> 100 µM (inactive),> 100 µM (inactive),> 100 µM (inactive),> 100 µM (inactive),> 100 µM (inactive),> 100 µM (inactive),> 100 µM (inactive),> 100 µM (inactive),> 100 µM (inactive),> 100 µM (inactive),> 100 µM (inactive),> 100 µM (inactive),> 100 µM (inactive),> 100 µM (inactive)
O=C(N/N=C\c1ccc([N+](=O)[O-])cc1)Nc1ccc2ccccc2c1,17.2 µM (inactive),24.2 µM (inactive),51.5 µM (inactive),37.5 µM (inactive),24.7 µM (inactive),71.3 µM (inactive),26.1 µM (inactive),32.5 µM (inactive),40.7 µM (inactive),58.3 µM (inactive),18.5 µM (inactive),24.6 µM (inactive),29.8 µM (inactive),44.8 µM (inactive),52.8 µM (inactive),> 100 µM (inactive),> 100 µM (inactive),77.3 µM (inactive),20.6 µM (inactive),56.1 µM (inactive)
